Test results taken from ChEMBL document CHEMBL1155061, “Conjugates of gonadotropin releasing hormone (GnRH) with carminic acid: Synthesis, generation of reactive oxygen species (ROS) and biological evaluation” (Bioorg Med Chem, 2008).
The source made the active and inactive calls. No cut-off for these calls is given here.

Legend:
Pituitary gland cell = assay: Effect on LH release in rat pituitary cells after 4 hrs; assay type: functional, cell-based
[1] = Stimulation of ERK phosphorylation in alphaT3-1 cells; assay type: cell-based

With `Cc1c(C(=O)NCCC(=O)NCCCC[C@@H](NC(=O)[C@H](Cc2ccc(O)cc2)NC(=O)[C@H](CO)NC(=O)[C@H](Cc2c[nH]c3ccccc23)NC(=O)[C@H](Cc2cnc[nH]2)NC(=O)[C@@H]2CCC(=O)N2)C(=O)N[C@@H](CC(C)C)C(=O)N[C@@H](CCCNC(=N)N)C(=O)N2CCC[C@H]2C(=O)NCC(N)=O)c(O)cc2c1C(=O)c1c(O)c([C@H]3O[C@H](CO)[C@@H](O)[C@H](O)[C@H]3O)c(O)c(O)c1C2=O` as the compound, how does the Activity (Pituitary gland cell) read?
Its Activity is “Active”.

And the Activity [1]?
The Activity was “Active”.

What does the source list for `CC(C)C[C@H](NC(=O)[C@@H](CCCCN)NC(=O)[C@H](Cc1ccc(O)cc1)NC(=O)[C@H](CO)NC(=O)[C@H](Cc1c[nH]c2ccccc12)NC(=O)[C@H](Cc1cnc[nH]1)NC(=O)[C@@H]1CCC(=O)N1)C(=O)N[C@@H](CCCNC(=N)N)C(=O)N1CCC[C@H]1C(=O)NCC(N)=O`?
Activity (Pituitary gland cell): Active; Activity [1]: Active
